Laboratory results: patent US20100204119A1, “4-AMINO-5-OXO-7,8-DIHYDROPYRIMIDO[5,4-F][1,4]OXAZEPIN-6(5H)-YL PHENYL DERIVATIVES” (Pfizer Inc, priority 2009, published 2010)

What follows are molecules tested against T1, Human full-length diacylglycerol:acylCoA acyltransferase 1 (DGAT-1) (Homo sapiens, UniProt O75907) (assay: In vitro assay for inhibition of DGAT-1 activity (DGAT 1 Reduced Microsome Multidose Assay)). Conditions: Trial 1 Human IC50, Trial 1: as Trial 4 except microsomes at 25 μg/mL instead of 5 μg/mL; average where n > 1.
T1 sequence (O75907 1-488): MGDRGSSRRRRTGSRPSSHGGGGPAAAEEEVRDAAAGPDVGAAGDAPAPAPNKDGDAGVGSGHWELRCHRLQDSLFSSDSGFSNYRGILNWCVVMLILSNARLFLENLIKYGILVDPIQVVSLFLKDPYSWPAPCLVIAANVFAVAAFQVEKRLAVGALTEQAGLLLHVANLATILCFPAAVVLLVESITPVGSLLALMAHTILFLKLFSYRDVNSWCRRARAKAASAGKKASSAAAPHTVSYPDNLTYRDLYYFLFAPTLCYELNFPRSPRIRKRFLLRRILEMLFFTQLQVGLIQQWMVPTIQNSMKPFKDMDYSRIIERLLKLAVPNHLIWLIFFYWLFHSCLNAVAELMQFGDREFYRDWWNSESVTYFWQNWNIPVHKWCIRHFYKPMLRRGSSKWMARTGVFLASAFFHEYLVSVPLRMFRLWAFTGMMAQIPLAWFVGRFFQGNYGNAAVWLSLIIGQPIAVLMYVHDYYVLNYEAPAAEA
Protocol: Human full-length diacylglycerol:acylCoA acyltransferase 1 (DGAT-1) was expressed in Sf9 insect cells which are then lysed and a crude membrane fraction (105,000×g pellet) was prepared.
Inhibitors in DMSO were pre-incubated with membranes before initiating the DGAT-1 reaction by the addition of decanoylCoA. […] The inhibitors were present at a range of eight concentrations to generate an apparent IC50 for each compound. […] Specifically, the eight concentrations used were 3 μM, 1 μM, 300 nM, 100 nM, 30 nM, 10 nM, 3 nM and 1 nM.
The reactions were allowed to proceed for 1.5 hours at room temperature and then terminated by the addition of 20 μl of EDTA (40 mM). Reaction mixture is then mixed by trituration with 30 μl of Microscint™-E (Perkin Elmer). […] Four separate trials were conducted. The method of analysis of Trial 1 was the same as Trial 4 (described above) except microsomes were utilized at 25 μg/mL instead of 5 μg/mL. The method of analysis of Trial 2 was the same as Trial 4 (described above) except eleven (11) concentrations of inhibitor were employed instead of eight (8). The method of analysis of Trial 3 was the same as Trial 2 except the compounds were serially diluted in a different laboratory.
Where this DGAT-1 inhibition assay was performed on a compound more than once, an average is provided for that compound.
For `CO[C@H]1CCN(C(=O)C[C@H]2CC[C@H](c3ccc(N4CCOc5ncnc(N)c5C4=O)cc3)CC2)C1` [Example 6E], the IC50 was 72.1 nM.
`Nc1ncnc2c1C(=O)N(c1ccc([C@H]3CC[C@H](CC(=O)N4CCC4)CC3)cc1)CCO2` [Example 6AW] showed an IC50 of 73.2 nM.
`CCCCCN(CCO)C(=O)C[C@H]1CC[C@H](c2ccc(N3CCOc4ncnc(N)c4C3=O)cc2)CC1` [Example 6V] was tested, and the IC50 was 30.7 nM.
`COCC1CCN(C(=O)C[C@H]2CC[C@H](c3ccc(N4CCOc5ncnc(N)c5C4=O)cc3)CC2)CC1` [Example 6I] showed an IC50 of 57.8 nM.
In the case of `CO[C@@H]1CCN(C(=O)C[C@H]2CC[C@H](c3ccc(N4CCOc5ncnc(N)c5C4=O)cc3)CC2)C1` [Example 6BA], the IC50 is reported as 60.1 nM.
In the case of `CCC(C)CN(CCO)C(=O)C[C@H]1CC[C@H](c2ccc(N3CCOc4ncnc(N)c4C3=O)cc2)CC1` (stereo partly drawn) [Example 6AH], the IC50 is reported as 67 nM.
For `CC(C)(C#N)c1ccc(N2CCOc3ncnc(N)c3C2=O)cc1` [Example 1F, 2-[4-(4-amino-5-oxo-7,8-dihydropyrimido[5,4-f][1,4]oxazepin-6(5H)-yl)phenyl]-2-methylpropanenitrile], the IC50 was 2120 nM.
`Nc1ncnc2c1C(=O)N(c1ccc([C@H]3CC[C@H](CC(=O)N4CCC[C@@H](O)C4)CC3)cc1)CCO2` [Example 6O] gave an IC50 of 162 nM.
`Nc1ncnc2c1C(=O)N(c1ccc([C@H]3CC[C@H](CCC(=O)N4CCOCC4)CC3)cc1)CCO2` [Example 6BF] showed an IC50 of 60.1 nM.
Molecule `C[C@@H]1COCCN1C(=O)C[C@H]1CC[C@H](c2ccc(N3CCOc4ncnc(N)c4C3=O)cc2)CC1` [Example 6BD] has an IC50 of 47.2 nM.
For `CN(CCc1ccccn1)C(=O)C[C@H]1CC[C@H](c2ccc(N3CCOc4ncnc(N)c4C3=O)cc2)CC1` [Example 6W], the IC50 was 77.7 nM.
`CN(C)C(=O)CCN(C)C(=O)C[C@H]1CC[C@H](c2ccc(N3CCOc4ncnc(N)c4C3=O)cc2)CC1` [Example 6AC] was tested, and the IC50 was 178 nM.
Work on `CC1(C)C(=O)NCCN1C(=O)C[C@H]1CC[C@H](c2ccc(N3CCOc4ncnc(N)c4C3=O)cc2)CC1` [Example 6AE] yielded an IC50 of 75.5 nM.
`Nc1ncnc2c1C(=O)N(c1ccc([C@H]3CC[C@H](CC(=O)N4CCNC(=O)CC4)CC3)cc1)CCO2` [Example 6AL] showed an IC50 of 105 nM.
With `CC(C)(C(N)=O)c1ccc(N2CCOc3ncnc(N)c3C2=O)cc1` [Example 1D, 2-[4-(4-amino-5-oxo-7,8-dihydropyrimido[5,4-f][1,4]oxazepin-6(5H)-yl)phenyl]-2-methylpropanamide] the IC50 was 2750 nM.
Work on `Cc1nnc2n1CCN(C(=O)C[C@H]1CC[C@H](c3ccc(N4CCOc5ncnc(N)c5C4=O)cc3)CC1)C2` [Example 6Q] yielded an IC50 of 240 nM.
`CCC1(CO)CCN(C(=O)C[C@H]2CC[C@H](c3ccc(N4CCOc5ncnc(N)c5C4=O)cc3)CC2)C1` (stereo partly drawn) [Example 6R] gave an IC50 of 17.5 nM.
In the case of `CC(O)C1CCN(C(=O)C[C@H]2CC[C@H](c3ccc(N4CCOc5ncnc(N)c5C4=O)cc3)CC2)CC1` (stereo partly drawn) [Example 6P], the IC50 is reported as 39.3 nM.
For `CCOC1CCN(C(=O)C[C@H]2CC[C@H](c3ccc(N4CCOc5ncnc(N)c5C4=O)cc3)CC2)CC1` [Example 6AB], the IC50 was 54.7 nM.
`CCN(CCCCO)C(=O)C[C@H]1CC[C@H](c2ccc(N3CCOc4ncnc(N)c4C3=O)cc2)CC1` [Example 6N] was tested, and the IC50 was 37.5 nM.
With `CC1C(=O)NCCN1C(=O)C[C@H]1CC[C@H](c2ccc(N3CCOc4ncnc(N)c4C3=O)cc2)CC1` (stereo partly drawn) [Example 6BB] the IC50 was 147 nM.
`CN(Cc1ccc(F)cc1)C(=O)C[C@H]1CC[C@H](c2ccc(N3CCOc4ncnc(N)c4C3=O)cc2)CC1` [Example 6AK] was tested, and the IC50 was 18.1 nM.
`Nc1ncnc2c1C(=O)N(c1ccc([C@H]3CC[C@H](CC(=O)N4CCNC(=O)C4)CC3)cc1)CCO2` [Example 6AX] was tested, and the IC50 was 123 nM.
Molecule `CN(CC1COCCO1)C(=O)C[C@H]1CC[C@H](c2ccc(N3CCOc4ncnc(N)c4C3=O)cc2)CC1` (stereo partly drawn) [Example 6AF] has an IC50 of 82.8 nM.
For `CC1CCCN1C(=O)C[C@H]1CC[C@H](c2ccc(N3CCOc4ncnc(N)c4C3=O)cc2)CC1` (stereo partly drawn) [Example 6AI], the IC50 was 80.4 nM.
With `CC1(CO)CCCN(C(=O)C[C@H]2CC[C@H](c3ccc(N4CCOc5ncnc(N)c5C4=O)cc3)CC2)C1` (stereo partly drawn) [Example 6AN] the IC50 was 71.3 nM.
In the case of `CCN(C(=O)C[C@H]1CC[C@H](c2ccc(N3CCOc4ncnc(N)c4C3=O)cc2)CC1)C(C)(C)CO` [Example 6U], the IC50 is reported as 129 nM.
With `CN(CC1CCOCC1)C(=O)C[C@H]1CC[C@H](c2ccc(N3CCOc4ncnc(N)c4C3=O)cc2)CC1` [Example 6D] the IC50 was 103 nM.
`Cc1cc(CN(C)C(=O)C[C@H]2CC[C@H](c3ccc(N4CCOc5ncnc(N)c5C4=O)cc3)CC2)ccn1` [Example 6AZ] was tested, and the IC50 was 67 nM.
Molecule `Nc1ncnc2c1C(=O)N(c1ccc([C@H]3CC[C@H](CC(=O)N4CCCC4CO)CC3)cc1)CCO2` (stereo partly drawn) [Example 6X] has an IC50 of 100 nM.
`CC(=O)N1CCN(C(=O)C[C@H]2CC[C@H](c3ccc(N4CCOc5ncnc(N)c5C4=O)cc3)CC2)CC1` [Example 6Y] showed an IC50 of 167 nM.
For `COCCN(C)C(=O)C[C@H]1CC[C@H](c2ccc(N3CCOc4ncnc(N)c4C3=O)cc2)CC1` [Example 6J], the IC50 was 51 nM.
`N#CC1CCCN(C(=O)C[C@H]2CC[C@H](c3ccc(N4CCOc5ncnc(N)c5C4=O)cc3)CC2)C1` (stereo partly drawn) [Example 6AO] gave an IC50 of 40 nM.
For `COC[C@H]1CCN(C(=O)C[C@H]2CC[C@H](c3ccc(N4CCOc5ncnc(N)c5C4=O)cc3)CC2)C1` [Example 6F], the IC50 was 84.9 nM.

Same assay, conditions: Trial 2 Human IC50, Trial 2: as Trial 4 except eleven concentrations of inhibitor instead of eight; average where n > 1
`CS(=O)(=O)CC(=O)N1CCC(c2ccc(N3CCOc4ncnc(N)c4C3=O)cc2)CC1` [Example 7T] was tested, and the IC50 was 123 nM.
For `Nc1ncnc2c1C(=O)N(c1ccc(C3CCN(C(=O)C4CCCOC4)CC3)cc1)CCO2` (stereo not drawn) [Example 7Z], the IC50 was 105 nM.
Work on `C[C@H](O)CC(=O)N1CCC(c2ccc(N3CCOc4ncnc(N)c4C3=O)cc2)CC1` [Example 7D] yielded an IC50 of 98.2 nM.
With `CC(C)(C#N)c1ccc(N2CCOc3ncnc(N)c3C2=O)cc1` [Example 1F, 2-[4-(4-amino-5-oxo-7,8-dihydropyrimido[5,4-f][1,4]oxazepin-6(5H)-yl)phenyl]-2-methylpropanenitrile] the IC50 was 1290 nM.
`CC(C)c1ccc(N2CCOc3ncnc(N)c3C2=O)cc1` [Example 1H] gave an IC50 of 17.1 nM.
With `Nc1ncnc2c1C(=O)N(c1ccc(C3CCN(C(=O)CC4CCCO4)CC3)cc1)CCO2` (stereo not drawn) [Example 7R] the IC50 was 50.1 nM.
For `Nc1ncnc2c1C(=O)N(c1ccc(C3CCN(C(=O)CC4CCOC4)CC3)cc1)CCO2` (stereo not drawn) [Example 7M], the IC50 was 114 nM.
`Nc1ncnc2c1C(=O)N(c1ccc(C3CCN(C(=O)CC4CCOCC4)CC3)cc1)CCO2` [Example 7O] was tested, and the IC50 was 138 nM.
`Nc1ncnc2c1C(=O)N(c1ccc(C3CCN(C(=O)Cn4cccn4)CC3)cc1)CCO2` [Example 7AC] showed an IC50 of 73.1 nM.

Same assay, conditions: Trial 3 Human IC50, Trial 3: as Trial 2 except compounds serially diluted in a different laboratory; average where n > 1
With `CS(=O)(=O)CC(=O)N1CCC(c2ccc(N3CCOc4ncnc(N)c4C3=O)cc2)CC1` [Example 7T] the IC50 was 217 nM.
In the case of `Nc1ncnc2c1C(=O)N(c1ccc(C3CCN(C(=O)C4CCCOC4)CC3)cc1)CCO2` (stereo not drawn) [Example 7Z], the IC50 is reported as 134 nM.
Molecule `C[C@H](O)CC(=O)N1CCC(c2ccc(N3CCOc4ncnc(N)c4C3=O)cc2)CC1` [Example 7D] has an IC50 of 267 nM.
For `CC(C)(C#N)c1ccc(N2CCOc3ncnc(N)c3C2=O)cc1` [Example 1F, 2-[4-(4-amino-5-oxo-7,8-dihydropyrimido[5,4-f][1,4]oxazepin-6(5H)-yl)phenyl]-2-methylpropanenitrile], the IC50 was 2660 nM.
`CC(C)c1ccc(N2CCOc3ncnc(N)c3C2=O)cc1` [Example 1H] gave an IC50 of 26.3 nM.
Molecule `Nc1ncnc2c1C(=O)N(c1ccc(C3CCN(C(=O)CC4CCCO4)CC3)cc1)CCO2` (stereo not drawn) [Example 7R] has an IC50 of 170 nM.
For `Nc1ncnc2c1C(=O)N(c1ccc(C3CCN(C(=O)CC4CCOC4)CC3)cc1)CCO2` (stereo not drawn) [Example 7M], the IC50 was 180 nM.
Molecule `Nc1ncnc2c1C(=O)N(c1ccc(C3CCN(C(=O)CC4CCOCC4)CC3)cc1)CCO2` [Example 7O] has an IC50 of 374 nM.
In the case of `Nc1ncnc2c1C(=O)N(c1ccc(C3CCN(C(=O)Cn4cccn4)CC3)cc1)CCO2` [Example 7AC], the IC50 is reported as 113 nM.

Same assay, conditions: Trial 4 Human IC50, Trial 4: eight concentrations of inhibitor, microsomes 5 μg/mL; average where n > 1
With `C[C@@H]1CN(c2ccc(C(O)C(F)(F)F)cc2)C(=O)c2c(N)ncnc2O1` (stereo partly drawn) [Example 1R] the IC50 was 37.7 nM.
`C[C@@H]1CN(c2ccc(CC(C)(C)O)cc2)C(=O)c2c(N)ncnc2O1` [Example 1AN] was tested, and the IC50 was 104 nM.
`C[C@@H]1CN(c2ccc(C3(C(N)=O)CCCC3)cc2)C(=O)c2c(N)ncnc2O1` [Example 1AF, 1-{4-[(8R)-4-amino-8-methyl-5-oxo-7,8-dihydropyrimido[5,4-f][1,4]oxazepin-6(5H)-yl]phenyl}cyclopentanecarboxamide] showed an IC50 of 117 nM.
`C[C@@H]1CN(c2ccc(C3CC3)cc2)C(=O)c2c(N)ncnc2O1` [Example 1U] was tested, and the IC50 was 19.9 nM.
Work on `C[C@@H]1CN(c2ccc(Cl)c(Cl)c2)C(=O)c2c(N)ncnc2O1` [Example 1AB, (8R)-4-amino-6-(3,4-dichlorophenyl)-8-methyl-7,8-dihydropyrimido[5,4-F][1,4]oxazepin-5(6H)-one] yielded an IC50 of 24.8 nM.
With `CCc1ccc(N2C[C@@H](C)Oc3ncnc(N)c3C2=O)cc1` [Example 1M, (8R)-4-amino-6-(4-ethylphenyl)-8-methyl-7,8-dihydropyrimido[5,4-f]-[1,4]oxazepin-5(6H)-one] the IC50 was 13.7 nM.
`C[C@@H]1CN(c2ccc(C(C)(C)O)cc2)C(=O)c2c(N)ncnc2O1` [Example 1A-2, (8R)-4-amino-6-(4-(2-hydroxypropan-2-yl)phenyl)-8-methyl-7,8-dihydropyrimido[5,4-f][1,4]oxazepin-5(6H)-one] was tested, and the IC50 was 61.4 nM.
For `CCC(CC)(OC)c1ccc(N2C[C@@H](C)Oc3ncnc(N)c3C2=O)cc1` [Example 1AI, (8R)-4-amino-6-[4-(1-ethyl-1-methoxypropyl)phenyl]-8-methyl-7,8-dihydropyrimido[5,4-f][1,4]oxazepin-5(6H)-one], the IC50 was 15.5 nM.
Work on `C[C@@H]1CN(c2ccc(C3(O)CCCCC3)cc2)C(=O)c2c(N)ncnc2O1` [Example 1AJ] yielded an IC50 of 35.6 nM.
`C[C@@H]1CN(c2ccc([C@H]3C[C@@H](O)C3)cc2)C(=O)c2c(N)ncnc2O1` [Example 1Q] showed an IC50 of 76.5 nM.
For `C[C@@H]1CN(c2ccc([C@@H](O)C(C)(C)C)cc2)C(=O)c2c(N)ncnc2O1` [Example 1AC], the IC50 was 55.4 nM.
For `C[C@@H]1CN(c2ccc([C@H](O)C(C)(C)C)cc2)C(=O)c2c(N)ncnc2O1` [Example 1AD], the IC50 was 22.6 nM.
Molecule `COC(=O)C(C)(C)c1ccc(N2C[C@@H](C)Oc3ncnc(N)c3C2=O)cc1` [Example 1X] has an IC50 of 32.5 nM.
In the case of `C[C@@H]1CN(c2ccc(C(C)(C)F)cc2)C(=O)c2c(N)ncnc2O1` [Example 1L, (8R)-4-amino-6-[4-(1-fluoro-1-methylethyl)phenyl]-8-methyl-7,8-dihydropyrimido[5,4-f][1,4]oxazepin-5(6H)-one], the IC50 is reported as 46.1 nM.
